Measurements from patent US6593342B1, “Pharmaceutical compositions comprising 2-quinolones” (Laboratoire L. Lafon, priority 1998, dated 2003).

Tested on: MXT
Experiment: Clonogenic test (soft agar colony growth), MXT
Type: cell-based, mouse
Conditions: 21 days, control = 100%, mean ± SEM
Description: 1—Interaction (Stimulation or Inhibition of Proliferation) With the Generation of Clonogenic Cells (Clonogenic Test)
The test used is that described by Hamburger et al. (Science, 1977; 197, 461-463) and Salmon et al. (New England J. Med., 298, 1321-1327). A cell is considered clonogenic if it has the capacity to proliferate and to give rise to a cell colony. “Human tumor stem cells” are the cells which are the source of the neoplastic cells which constitute a given tumor. These tumor stem cells are responsible for the relapse processes which may be observed after surgical resection of primary tumors and are also responsible for the formation of metastases. In a tumor or a tumor cell line, these clonogenic stem cells differ from the other cells of the tumor or from the neoplastic cell line under consideration in that they conserve their capacity to proliferate in the absence of any solid support.
In this test, the tumor cells are cultured on a semi-solid support consisting of agar. […] In a tumor cell population, cultured on such a support, it is these clonogenic cells (associated with an unlimited number of cell divisions and whose proliferation is referred to by M. I. Dawson as “anchorage-independent [clonal] growth”) which are capable of growing. The percentage of these clonogenic cells in a tumor or a cell line ranges between 0.1% and 0.001%.
The influence of the compounds of formulae (I) and (Ia) on the growth of the cell colonies obtained by culturing, for example, the mammalian tumor lines MCF7 and MXT and the colorectal line HT-29 on the semi-liquid culture medium known as “soft agar” was measured. On such a medium, only the clonogenic cells referred to by M. I. Dawson as “anchorage-independent (clonal) cells” survive and grow. The growth of these cells in such a “non-adherent” mode bears witness to their degree of tumorigenicity. The inhibition of the growth of the size of a tumor in which a larger number of clonogenic cells has developed then becomes the evidence of reinforced cytotoxic activity.
Conversely, this test can also reveal that a compound is capable of inhibiting the generation/proliferation of clonogenic cells, thus making the tumor less able to grow and thus reducing the population of tumor cells.
The tumor cell lines studied are maintained in culture in 25 cm^2 falcon dishes. They are then trypsinized and the cells are fully dissociated from each other. The percentage of live cells is determined after staining with trypan blue. A cell suspension at a concentration of from 5·10^4 to 15·10^4 cells/ml (depending on the cell type under consideration) is prepared in a 0.3% agar solution. Next, 200 μl of this suspension are inoculated in Petri dishes 35 mm in diameter, in which are placed 3 ml of a base layer consisting of a 0.5% agar solution. The 200 μl of cell suspension are in turn covered with 1.8 ml of an upper layer consisting of a 0.3% agar solution. The dishes are then placed in an incubator at 37° C., 5% CO2 and 70% humidity until the treatment. This treatment is carried out about 1 to 2 hours after the inoculation. The test compounds are prepared at a concentration 100 times greater than the desired concentration and 50 μl of these treating solutions are placed over the upper layer of agar in the corresponding dishes. In the present study, the final concentration of the test products is 10^−5, 10^−7 and 10^−9 M. The dishes are then kept in an incubator for 21 days. On the 21st day the dishes are treated by depositing on the upper layer 100 μl of a 1 mg/ml solution of MTT (3-(4,5-dimethylthiazol-2-yl)-2,5-diphenyltetrazolinium bromide prepared with RPMI 1640 medium) for 3 h at 37° C. After this period, the cell colonies are fixed by adding 2 ml of formalin per dish. After fixing for 24 hours, the formalin is evaporated off and the number of stained cell colonies, thus consisting of metabolically active cells, and whose surface area is greater than 100 μm^2, is determined using an inverted microscope. […]

Compound: CCN(CC)C(=O)Cn1c(=O)c(-c2ccc(OC)cc2)cc2c(OC)cc(OC)cc21 [CRL8315, N,N-Diethyl-2-[5,7-dimethoxy-3-(4-methoxy-phenyl)-2-oxo-1,2-dihydro-1-quinolinyl]acetamide]
- average number of clones of clonogenic cells, percentage relative to control (10^−5 M): 76 ± 2.3%
- average number of clones of clonogenic cells, percentage relative to control (10^−7 M): 103.9 ± 4.3%
- average number of clones of clonogenic cells, percentage relative to control (10^−9 M): 102.4 ± 3.9%

Compound: COc1ccc(-c2cc3c(OC)cc(OC)cc3n(CCN(C)C)c2=O)cc1 [CRL8316, 1-[2-(Dimethylamino)ethyl]-5,7-dimethoxy-3-(4-methoxyphenyl)-1,2-dihydro-2-quinolinone]
- average number of clones of clonogenic cells, percentage relative to control (10^−5 M): 10.8 ± 0.5%
- average number of clones of clonogenic cells, percentage relative to control (10^−7 M): 89.1 ± 3.7%
- average number of clones of clonogenic cells, percentage relative to control (10^−9 M): 95.3 ± 3.8%

Compound: COc1ccc(-c2cc3c(OC)cc(OC)cc3n(CCC#N)c2=O)cc1 [CRL8247, 3-[5,7-Dimethoxy-3-(4-methoxyphenyl)-2-oxo-1,2-dihydro-1-quinolinyl]propanenitrile]
- average number of clones of clonogenic cells, percentage relative to control (10^−5 M): 65.7 ± 1.7%
- average number of clones of clonogenic cells, percentage relative to control (10^−7 M): 89.6 ± 4.9%
- average number of clones of clonogenic cells, percentage relative to control (10^−9 M): 98.4 ± 2.6%

Compound: CCN(CC)C(=O)CCn1c(=O)c(-c2ccc(OC)cc2)cc2c(OC)cc(OC)cc21 [CRL8283, N,N-Diethyl-3-[5,7-dimethoxy-3-(4-methoxy-phenyl)-2-oxo-1,2-dihydro-1-quinolinyl]propanamide]
- average number of clones of clonogenic cells, percentage relative to control (10^−5 M): 23.7 ± 1.4%
- average number of clones of clonogenic cells, percentage relative to control (10^−7 M): 81.2 ± 3%
- average number of clones of clonogenic cells, percentage relative to control (10^−9 M): 91.4 ± 4%

Compound: COc1ccc(-c2cc3c(OC)cc(OC)cc3n(CCc3nnn[nH]3)c2=O)cc1 [CRL8256, 1-[2-(1H-1,2,3,4-Tetrazol-5-yl)ethyl]-5,7-dimethoxy-3-(4-methoxyphenyl)-1,2-dihydro-2-quinolinone]
- average number of clones of clonogenic cells, percentage relative to control (10^−5 M): 53 ± 1.9%
- average number of clones of clonogenic cells, percentage relative to control (10^−7 M): 103.8 ± 3.9%
- average number of clones of clonogenic cells, percentage relative to control (10^−9 M): 104.5 ± 4.7%

Compound: COc1ccc(-c2cc3c(OC)cc(OC)cc3[nH]c2=O)cc1 [CRL8246, 5,7-Dimethoxy-3-(4-methoxyphenyl)-1,2-dihydro-2-quinolinone]
- average number of clones of clonogenic cells, percentage relative to control (10^−5 M): 96.7 ± 7.2%
- average number of clones of clonogenic cells, percentage relative to control (10^−7 M): 97.7 ± 9.3%
- average number of clones of clonogenic cells, percentage relative to control (10^−9 M): 95.2 ± 6.8%
